Experimental data published in ChEMBL document CHEMBL3132769, “Fragment growing to retain or alter the selectivity of anchored kinase hinge-binding fragments” (Medchemcomm, 2014).

Legend:
[1] = target: Fibroblast growth factor receptor 4 (Homo sapiens) (UniProt P22455); assay: Inhibition of human FGFR4 catalytic domain expressed in baculovirus assessed as substrate phosphorylation using fluorescence-labelled peptides as substrate at 0.06 uM after 90 mins by microfluidic peptide phosphorylation assay
Chain of Fibroblast growth factor receptor 4 (Homo sapiens) (P22455 22-802 limits assumed): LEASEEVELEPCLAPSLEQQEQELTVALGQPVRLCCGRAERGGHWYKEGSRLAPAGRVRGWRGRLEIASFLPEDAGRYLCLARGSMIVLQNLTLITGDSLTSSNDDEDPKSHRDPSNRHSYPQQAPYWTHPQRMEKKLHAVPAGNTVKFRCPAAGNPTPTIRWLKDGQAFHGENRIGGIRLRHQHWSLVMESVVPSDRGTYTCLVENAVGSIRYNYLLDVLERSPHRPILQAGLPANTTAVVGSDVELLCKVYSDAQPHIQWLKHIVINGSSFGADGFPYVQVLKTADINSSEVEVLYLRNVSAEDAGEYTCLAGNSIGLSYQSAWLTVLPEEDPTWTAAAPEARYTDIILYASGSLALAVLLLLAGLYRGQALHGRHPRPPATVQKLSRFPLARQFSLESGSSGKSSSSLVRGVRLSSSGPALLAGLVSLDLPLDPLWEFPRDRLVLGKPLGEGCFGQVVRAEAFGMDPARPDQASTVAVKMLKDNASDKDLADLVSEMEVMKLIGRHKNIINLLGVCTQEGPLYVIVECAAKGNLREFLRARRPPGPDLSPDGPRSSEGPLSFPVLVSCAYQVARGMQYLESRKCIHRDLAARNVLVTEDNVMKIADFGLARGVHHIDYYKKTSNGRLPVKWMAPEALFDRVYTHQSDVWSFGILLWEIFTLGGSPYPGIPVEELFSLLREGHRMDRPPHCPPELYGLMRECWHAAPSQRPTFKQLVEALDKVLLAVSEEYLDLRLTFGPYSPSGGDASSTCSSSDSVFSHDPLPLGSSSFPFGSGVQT

[2] = target: T1, Serine/threonine-protein kinase Nek2 (Homo sapiens) (UniProt P51955); assay: Inhibition of human full length NEK2 expressed in baculovirus assessed as substrate phosphorylation using fluorescence-labelled peptides as substrate at 0.06 uM after 90 mins by microfluidic peptide phosphorylation assay
T1 sequence (whole entry): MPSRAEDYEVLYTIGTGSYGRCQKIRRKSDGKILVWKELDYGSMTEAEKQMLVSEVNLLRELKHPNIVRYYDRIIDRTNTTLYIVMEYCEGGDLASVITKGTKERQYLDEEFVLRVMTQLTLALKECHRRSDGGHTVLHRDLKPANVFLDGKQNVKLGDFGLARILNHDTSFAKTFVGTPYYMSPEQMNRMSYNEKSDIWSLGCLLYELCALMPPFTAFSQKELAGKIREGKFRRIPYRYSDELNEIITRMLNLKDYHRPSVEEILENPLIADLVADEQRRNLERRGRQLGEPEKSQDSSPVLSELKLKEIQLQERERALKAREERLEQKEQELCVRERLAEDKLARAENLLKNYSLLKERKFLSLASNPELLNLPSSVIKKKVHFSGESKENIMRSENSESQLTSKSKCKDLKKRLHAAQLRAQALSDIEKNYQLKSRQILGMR

[3] = target: T2, Serine/threonine-protein kinase D3 (Homo sapiens) (UniProt O94806); assay: Inhibition of human full length PKD3 expressed in baculovirus assessed as substrate phosphorylation using fluorescence-labelled peptides as substrate at 0.06 uM after 90 mins by microfluidic peptide phosphorylation assay
T2 sequence (whole entry): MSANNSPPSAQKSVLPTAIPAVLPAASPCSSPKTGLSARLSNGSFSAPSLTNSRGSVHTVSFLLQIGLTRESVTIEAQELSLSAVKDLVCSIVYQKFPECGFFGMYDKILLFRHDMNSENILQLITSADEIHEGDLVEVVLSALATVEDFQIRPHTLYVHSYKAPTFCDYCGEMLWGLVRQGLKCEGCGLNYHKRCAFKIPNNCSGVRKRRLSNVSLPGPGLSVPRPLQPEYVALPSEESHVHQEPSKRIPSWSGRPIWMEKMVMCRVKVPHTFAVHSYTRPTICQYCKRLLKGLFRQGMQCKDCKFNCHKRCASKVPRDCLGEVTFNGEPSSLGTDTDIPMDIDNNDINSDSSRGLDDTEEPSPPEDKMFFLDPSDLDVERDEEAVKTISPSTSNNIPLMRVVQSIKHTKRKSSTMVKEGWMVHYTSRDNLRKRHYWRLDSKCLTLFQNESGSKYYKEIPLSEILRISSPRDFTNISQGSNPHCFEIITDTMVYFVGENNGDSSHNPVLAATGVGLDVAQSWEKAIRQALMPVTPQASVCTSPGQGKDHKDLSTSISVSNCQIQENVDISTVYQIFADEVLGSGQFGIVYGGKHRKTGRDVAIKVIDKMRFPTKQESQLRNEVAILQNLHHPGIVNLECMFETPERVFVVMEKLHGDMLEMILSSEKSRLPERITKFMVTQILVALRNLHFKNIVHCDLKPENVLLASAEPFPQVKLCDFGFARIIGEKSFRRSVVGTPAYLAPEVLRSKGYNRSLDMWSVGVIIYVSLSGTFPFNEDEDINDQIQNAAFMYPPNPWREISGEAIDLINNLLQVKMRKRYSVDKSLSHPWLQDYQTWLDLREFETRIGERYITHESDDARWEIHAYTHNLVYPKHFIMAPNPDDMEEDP

[4] = target: Rho-associated protein kinase 2 (Homo sapiens) (UniProt O75116); assay: Inhibition of human ROCK2 catalytic domain expressed in baculovirus assessed as substrate phosphorylation using fluorescence-labelled peptides as substrate at 70 uM after 90 mins by microfluidic peptide phosphorylation assay
Chain of Rho-associated protein kinase 2 (Homo sapiens) (O75116 whole entry, looked up, the tested form may be a part): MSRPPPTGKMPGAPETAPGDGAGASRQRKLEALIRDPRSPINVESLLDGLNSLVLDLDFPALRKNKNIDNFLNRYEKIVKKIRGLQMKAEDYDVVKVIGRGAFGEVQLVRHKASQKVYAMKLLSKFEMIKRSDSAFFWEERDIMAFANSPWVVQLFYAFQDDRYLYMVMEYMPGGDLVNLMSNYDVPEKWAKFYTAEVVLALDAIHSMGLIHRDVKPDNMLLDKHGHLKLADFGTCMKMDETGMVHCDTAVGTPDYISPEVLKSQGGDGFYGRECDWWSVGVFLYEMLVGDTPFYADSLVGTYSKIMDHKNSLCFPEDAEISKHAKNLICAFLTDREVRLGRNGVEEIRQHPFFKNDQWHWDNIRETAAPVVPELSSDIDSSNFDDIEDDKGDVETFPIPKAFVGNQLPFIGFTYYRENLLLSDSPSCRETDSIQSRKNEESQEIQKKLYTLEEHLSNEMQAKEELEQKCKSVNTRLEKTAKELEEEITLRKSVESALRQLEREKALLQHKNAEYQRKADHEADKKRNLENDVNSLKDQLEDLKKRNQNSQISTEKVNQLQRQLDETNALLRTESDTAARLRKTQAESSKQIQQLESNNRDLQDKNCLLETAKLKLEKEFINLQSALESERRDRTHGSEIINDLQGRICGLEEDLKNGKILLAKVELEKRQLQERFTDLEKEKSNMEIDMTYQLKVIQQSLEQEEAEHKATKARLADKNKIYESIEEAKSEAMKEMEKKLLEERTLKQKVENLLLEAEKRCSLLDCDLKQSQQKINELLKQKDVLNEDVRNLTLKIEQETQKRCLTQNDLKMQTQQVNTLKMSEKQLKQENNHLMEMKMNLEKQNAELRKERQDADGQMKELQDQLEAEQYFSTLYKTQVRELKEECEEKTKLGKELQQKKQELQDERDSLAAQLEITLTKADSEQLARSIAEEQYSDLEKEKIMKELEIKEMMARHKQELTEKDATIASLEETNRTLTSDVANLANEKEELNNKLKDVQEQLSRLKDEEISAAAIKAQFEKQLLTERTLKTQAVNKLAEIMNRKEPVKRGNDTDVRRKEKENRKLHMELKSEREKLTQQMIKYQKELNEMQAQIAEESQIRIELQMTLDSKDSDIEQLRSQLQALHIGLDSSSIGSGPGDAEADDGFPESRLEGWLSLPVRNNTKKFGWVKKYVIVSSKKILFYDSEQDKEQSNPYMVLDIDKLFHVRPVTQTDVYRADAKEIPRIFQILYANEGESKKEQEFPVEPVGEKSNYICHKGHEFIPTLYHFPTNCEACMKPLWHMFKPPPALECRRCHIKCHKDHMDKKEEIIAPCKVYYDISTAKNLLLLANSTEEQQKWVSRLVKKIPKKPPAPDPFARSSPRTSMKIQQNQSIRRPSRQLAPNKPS

[5] = target: Vascular endothelial growth factor receptor 2 (Homo sapiens) (UniProt P35968); assay: Inhibition of human KDR cytoplasmic domain expressed in baculovirus assessed as substrate phosphorylation using fluorescence-labelled peptides as substrate at 70 uM after 90 mins by microfluidic peptide phosphorylation assay
Chain of Vascular endothelial growth factor receptor 2 (Homo sapiens) (P35968 whole entry, the tested form may be a part): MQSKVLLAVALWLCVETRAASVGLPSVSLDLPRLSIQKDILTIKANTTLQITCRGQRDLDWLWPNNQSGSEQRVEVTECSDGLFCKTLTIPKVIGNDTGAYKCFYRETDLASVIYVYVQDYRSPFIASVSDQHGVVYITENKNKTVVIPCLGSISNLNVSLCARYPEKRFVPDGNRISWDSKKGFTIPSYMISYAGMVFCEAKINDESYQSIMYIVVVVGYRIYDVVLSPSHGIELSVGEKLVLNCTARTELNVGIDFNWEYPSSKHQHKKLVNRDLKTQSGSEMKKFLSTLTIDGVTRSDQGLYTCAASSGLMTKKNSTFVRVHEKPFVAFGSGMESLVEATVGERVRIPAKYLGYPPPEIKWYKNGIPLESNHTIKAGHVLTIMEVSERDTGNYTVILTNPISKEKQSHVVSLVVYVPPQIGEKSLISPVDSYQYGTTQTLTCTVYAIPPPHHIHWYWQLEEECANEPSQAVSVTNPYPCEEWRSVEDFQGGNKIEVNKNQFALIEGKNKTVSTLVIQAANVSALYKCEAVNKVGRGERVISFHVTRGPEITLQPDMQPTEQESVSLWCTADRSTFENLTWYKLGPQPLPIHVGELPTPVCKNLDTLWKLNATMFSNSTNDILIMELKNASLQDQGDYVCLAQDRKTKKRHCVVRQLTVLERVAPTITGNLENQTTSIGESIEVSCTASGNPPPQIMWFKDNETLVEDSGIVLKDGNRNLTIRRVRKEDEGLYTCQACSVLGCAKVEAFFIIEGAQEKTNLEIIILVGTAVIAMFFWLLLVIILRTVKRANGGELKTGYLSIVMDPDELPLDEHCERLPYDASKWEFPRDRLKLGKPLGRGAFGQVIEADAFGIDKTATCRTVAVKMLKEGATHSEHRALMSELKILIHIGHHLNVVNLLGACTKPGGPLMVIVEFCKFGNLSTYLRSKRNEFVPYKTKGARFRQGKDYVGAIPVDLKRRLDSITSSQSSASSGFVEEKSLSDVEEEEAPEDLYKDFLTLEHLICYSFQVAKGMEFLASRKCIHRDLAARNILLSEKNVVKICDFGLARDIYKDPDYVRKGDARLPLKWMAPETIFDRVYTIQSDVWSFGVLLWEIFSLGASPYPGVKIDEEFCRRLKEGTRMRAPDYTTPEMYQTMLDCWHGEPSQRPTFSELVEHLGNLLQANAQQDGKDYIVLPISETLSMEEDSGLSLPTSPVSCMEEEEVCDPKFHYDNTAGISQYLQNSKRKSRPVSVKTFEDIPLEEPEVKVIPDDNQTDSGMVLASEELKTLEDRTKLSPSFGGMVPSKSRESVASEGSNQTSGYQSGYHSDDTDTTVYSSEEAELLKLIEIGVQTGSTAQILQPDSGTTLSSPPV

Homo sapiens [6] = species: Homo sapiens; assay: Inhibition of human P70S6K catalytic domain expressed in baculovirus assessed as substrate phosphorylation using fluorescence-labelled peptides as substrate at 8 uM after 90 mins by microfluidic peptide phosphorylation assay
[7] = target: Ribosomal protein S6 kinase alpha-5 (Homo sapiens) (UniProt O75582); assay: Inhibition of human full length MSK1 expressed in baculovirus assessed as substrate phosphorylation using fluorescence-labelled peptides as substrate at 8 uM after 90 mins by microfluidic peptide phosphorylation assay
Chain of Ribosomal protein S6 kinase alpha-5 (Homo sapiens) (O75582 whole entry, looked up): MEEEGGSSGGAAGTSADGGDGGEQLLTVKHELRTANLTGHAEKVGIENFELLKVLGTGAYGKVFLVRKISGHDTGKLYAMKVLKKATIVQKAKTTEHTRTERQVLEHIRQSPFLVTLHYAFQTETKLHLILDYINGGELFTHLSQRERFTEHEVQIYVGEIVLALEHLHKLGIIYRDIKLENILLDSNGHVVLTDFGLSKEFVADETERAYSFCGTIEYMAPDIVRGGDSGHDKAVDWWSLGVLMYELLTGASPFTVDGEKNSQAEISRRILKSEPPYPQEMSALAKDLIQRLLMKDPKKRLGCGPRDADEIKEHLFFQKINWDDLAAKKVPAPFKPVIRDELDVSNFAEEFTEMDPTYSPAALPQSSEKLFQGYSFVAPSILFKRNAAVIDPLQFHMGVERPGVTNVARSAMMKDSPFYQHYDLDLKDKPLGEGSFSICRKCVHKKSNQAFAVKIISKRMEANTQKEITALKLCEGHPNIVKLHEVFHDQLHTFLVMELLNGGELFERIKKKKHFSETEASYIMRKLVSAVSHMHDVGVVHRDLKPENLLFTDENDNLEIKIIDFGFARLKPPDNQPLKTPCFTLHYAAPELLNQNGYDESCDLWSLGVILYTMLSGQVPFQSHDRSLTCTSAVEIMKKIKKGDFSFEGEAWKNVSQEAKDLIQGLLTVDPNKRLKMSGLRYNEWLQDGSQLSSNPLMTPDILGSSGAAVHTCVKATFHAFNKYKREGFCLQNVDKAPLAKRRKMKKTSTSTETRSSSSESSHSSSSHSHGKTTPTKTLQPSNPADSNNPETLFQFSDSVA

Homo sapiens [8] = species: Homo sapiens; details: 0.1 uM
Description: Inhibition of human full length PKA expressed in baculovirus assessed as substrate phosphorylation using fluorescence-labelled peptides as substrate at 0.1 uM after 90 mins by microfluidic peptide phosphorylation assay

Compound: NC1(Cc2ccc(Cl)cc2)CCN(c2ncnc3[nH]ccc23)CC1
- inhibition [1]: 2%
- inhibition [2]: 0%
- inhibition [3]: 0%

Compound: CNCc1ccc(-c2ncnc3[nH]cnc23)cc1
- inhibition [4]: 88.5%
- inhibition [5]: 64%

Compound: NCC1CCN(c2ncnc3[nH]ccc23)CC1
- inhibition (Homo sapiens [6]): 68%
- inhibition [7]: 68%

Compound: C[C@H](CN(C)C)Oc1nc(Nc2cc3cccc(Cl)c3cn2)cnc1C#N
- inhibition (Homo sapiens [8]): 0%
